pIC50: −log10 of the molar value.

This assay deals with T1, PD-1/PD-L1 (Homo sapiens, UniProt Q9NZQ7).
T1 construct: TVMV protease site linker (C); made in house; host or cells: HEK293T cells
As to the kind of experiment: PD-1/PD-L1 Homogenous Time-Resolved Fluorescence (HTRF) binding assay. The settings on record: PD-L1-His 10 nM, PD-1-Ig 20 nM. In short, it runs like this:
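Inhibitors pre-incubated 15 min with PD-L1-His extracellular domain (10 nM final) in dPBS with 0.1% BSA and 0.05% Tween-20, then PD-1-Ig (20 nM final) added for a further 15 min. Read-out by HTRF with europium cryptate anti-Ig (1 nM) and APC anti-His (20 nM). Related pairs: PD-1-Ig/PD-L2-His (20/5 nM), CD80-His/PD-L1-Ig (100/10 nM).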
(TR-FRET usually uses a lanthanide donor and a delayed reading to cut background.)

T1 sequence (Q9NZQ7 18-239): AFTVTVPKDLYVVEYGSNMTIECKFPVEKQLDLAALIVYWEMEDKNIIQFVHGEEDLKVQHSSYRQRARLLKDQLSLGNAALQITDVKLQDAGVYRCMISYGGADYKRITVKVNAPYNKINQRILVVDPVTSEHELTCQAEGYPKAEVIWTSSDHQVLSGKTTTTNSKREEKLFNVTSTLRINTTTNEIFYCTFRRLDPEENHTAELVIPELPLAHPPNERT

For the molecule `Cc1c(COc2cc(OCc3cncc(C#N)c3)c(CNCc3nc4ccccc4s3)cc2Cl)cccc1-c1cccc(OCC2CCCN(C)C2)c1Cl` (centres unmarked) [Example 2611, 5-((2-(((benzo[d]thiazol-2-ylmethyl)amino)methyl)-4-chloro-5-((2′-chloro-2-methyl-3′-((1-methylpiperidin-3-yl)methoxy)-[1,1′-biphenyl]-3-yl)methoxy)phenoxy)methyl)nicotinonitrile], the pIC50 was 8.23.

For the molecule `Cc1c(COc2cc(OCc3cncc(C#N)c3)c(CNCc3ncc(-c4ccccc4)o3)cc2Cl)cccc1-c1cccc(OCC2CCCN(C)C2)c1Cl` (centres unmarked) [Example 2612, 5-((4-chloro-5-((2′-chloro-2-methyl-3′-((1-methylpiperidin-3-yl)methoxy)-[1,1′-biphenyl]-3-yl)methoxy)-2-((((5-phenyloxazol-2-yl)methyl)amino)methyl)phenoxy)methyl)nicotinonitrile], the pIC50 was 8.14. This pIC50 and that of the molecule before are within 0.2 log units of each other.

`Cc1c(COc2cc(OCc3cncc(C#N)c3)c(CNCCc3nc4cc(Cl)ccc4[nH]3)cc2Cl)cccc1-c1cccc(OCC2CCCN(C)C2)c1Cl` (centres unmarked) [Example 2613, 5-((4-chloro-2-(((2-(5-chloro-1H-benzo[d]imidazol-2-yl)ethyl)amino)methyl)-5-((2′-chloro-2-methyl-3′-((1-methylpiperidin-3-yl)methoxy)-[1,1′-biphenyl]-3-yl)methoxy)phenoxy)methyl)nicotinonitrile] showed a negative logarithm of the IC50 (pIC50) of 8.66.

As for `Cc1c(COc2cc(OCc3cncc(C#N)c3)c(CNCc3ccnn3C)cc2Cl)cccc1-c1cccc(OCC2CCCN(C)C2)c1Cl` (centres unmarked) [Example 2614, 5-((4-chloro-5-((2′-chloro-2-methyl-3′-((1-methylpiperidin-3-yl)methoxy)-[1,1′-biphenyl]-3-yl)methoxy)-2-((((1-methyl-1H-pyrazol-5-yl)methyl)amino)methyl)phenoxy)methyl)nicotinonitrile], the negative-log IC50 (pIC50) was 8.77.

Molecule `Cc1c(COc2cc(OCc3cncc(C#N)c3)c(CNCc3nc4ccccc4[nH]3)cc2Cl)cccc1-c1cccc(OCC2CCCN(C)C2)c1Cl` (centres unmarked) [Example 2616, 5-((2-((((1H-benzo[d]imidazol-2-yl)methyl)amino)methyl)-4-chloro-5-((2′-chloro-2-methyl-3′-((1-methylpiperidin-3-yl)methoxy)-[1,1′-biphenyl]-3-yl)methoxy)phenoxy)methyl)nicotinonitrile] showed a pIC50 of 8.72.

Turning to `Cc1c(COc2cc(OCc3cncc(C#N)c3)c(CN(C)Cc3csc(N)n3)cc2Cl)cccc1-c1cccc(OCC2CCCN(C)C2)c1Cl` (centres unmarked) [Example 2617, 5-((2-((((2-aminothiazol-4-yl)methyl)(methyl)amino)methyl)-4-chloro-5-((2′-chloro-2-methyl-3′-((1-methylpiperidin-3-yl)methoxy)-[1,1′-biphenyl]-3-yl)methoxy)phenoxy)methyl)nicotinonitrile], the pIC50 is 8.74.

`Cc1c(COc2cc(OCc3cncc(C#N)c3)c(CN(C)Cc3nc[nH]n3)cc2Cl)cccc1-c1cccc(OCC2CCCN(C)C2)c1Cl` (centres unmarked) [Example 2618, 5-((2-((((1H-1,2,4-triazol-3-yl)methyl)(methyl)amino)methyl)-4-chloro-5-((2′-chloro-2-methyl-3′-((1-methylpiperidin-3-yl)methoxy)-[1,1′-biphenyl]-3-yl)methoxy)phenoxy)methyl)nicotinonitrile]: the pIC50 was 9.15.

In the case of `Cc1c(COc2cc(OCc3cncc(C#N)c3)c(CNCc3nnc4ccc(C(F)(F)F)cn34)cc2Cl)cccc1-c1cccc(OCC2CCCN(C)C2)c1Cl` (centres unmarked) [Example 2619, 5-((4-chloro-5-((2′-chloro-2-methyl-3′-((1-methylpiperidin-3-yl)methoxy)-[1,1′-biphenyl]-3-yl)methoxy)-2-((((6-(trifluoromethyl)-[1,2,4]triazolo[4,3-a]pyridin-3-yl)methyl)amino)methyl)phenoxy)methyl)nicotinonitrile], the pIC50 was 8.51.

The molecule `Cc1c(COc2cc(OCc3cncc(C#N)c3)c(CNC(C)(C)c3ncon3)cc2Cl)cccc1-c1cccc(OCC2CCCN(C)C2)c1Cl` (centres unmarked) [Example 2620, 5-((2-(((2-(1,2,4-oxadiazol-3-yl)propan-2-yl)amino)methyl)-4-chloro-5-((2′-chloro-2-methyl-3′-((1-methylpiperidin-3-yl)methoxy)-[1,1′-biphenyl]-3-yl)methoxy)phenoxy)methyl)nicotinonitrile] had a pIC50 of 8.33.

As for `Cc1c(COc2cc(OCc3cncc(C#N)c3)c(CNCc3cccnc3Cl)cc2Cl)cccc1-c1cccc(OCC2CCCN(C)C2)c1Cl` (centres unmarked) [Example 2621, 5-((4-chloro-5-((2′-chloro-2-methyl-3′-((1-methylpiperidin-3-yl)methoxy)-[1,1′-biphenyl]-3-yl)methoxy)-2-((((2-chloropyridin-3-yl)methyl)amino)methyl)phenoxy)methyl)nicotinonitrile], the pIC50 was 8.05.

In turn, `CCc1csc(CNCc2cc(Cl)c(OCc3cccc(-c4cccc(OCC5CCCN(C)C5)c4Cl)c3C)cc2OCc2cncc(C#N)c2)n1` (centres unmarked) [Example 2622, 5-((4-chloro-5-((2′-chloro-2-methyl-3′-((1-methylpiperidin-3-yl)methoxy)-[1,1′-biphenyl]-3-yl)methoxy)-2-((((4-ethylthiazol-2-yl)methyl)amino)methyl)phenoxy)methyl)nicotinonitrile] showed a pIC50 of 8.08.

The molecule `Cc1c(COc2cc(OCc3cncc(C#N)c3)c(CNCc3ncc4ccccn34)cc2Cl)cccc1-c1cccc(OCC2CCCN(C)C2)c1Cl` (centres unmarked) [Example 2623, 5-((4-chloro-5-((2′-chloro-2-methyl-3′-((1-methylpiperidin-3-yl)methoxy)-[1,1′-biphenyl]-3-yl)methoxy)-2-(((imidazo[1,5-a]pyridin-3-ylmethyl)amino)methyl)phenoxy)methyl)nicotinonitrile] had a pIC50 of 8.21.

In turn, `[2H]C([2H])([2H])C(NCc1cc(Cl)c(OCc2cccc(-c3cccc(OCC4CCCN(C)C4)c3Cl)c2C)cc1OCc1cncc(C#N)c1)(c1ncon1)C([2H])([2H])[2H]` (centres unmarked) [Example 2624, 5-((2-(((2-(1,2,4-oxadiazol-3-yl)propan-2-yl-1,1,1,3,3,3-d6)amino)methyl)-4-chloro-5-((2′-chloro-2-methyl-3′-((1-methylpiperidin-3-yl)methoxy)-[1,1′-biphenyl]-3-yl)methoxy)phenoxy)methyl)nicotinonitrile] had a negative-log IC50 (pIC50) of 8.52. Against the preceding molecule, the pIC50 is 0.31 log units higher.

In turn, `Cc1c(COc2cc(OCc3cncc(C#N)c3)c(CNC3(c4ncon4)CC(OCc4ccccc4)C3)cc2Cl)cccc1-c1cccc(OCC2CCCN(C)C2)c1Cl` (centres unmarked) [Example 2625, 5-((2-(((3-(benzyloxy)-1-(1,2,4-oxadiazol-3-yl)cyclobutyl)amino)methyl)-4-chloro-5-((2′-chloro-2-methyl-3′-((1-methylpiperidin-3-yl)methoxy)-[1,1′-biphenyl]-3-yl)methoxy)phenoxy)methyl)nicotinonitrile] had a negative-log IC50 (pIC50) of 7.45.

Usually pIC50 stands for the IC50 on a negative log10 scale, so that one unit is a factor of ten. High values mean a small IC50, low ones a large IC50.

For the origin of these results see patent US20240124417A1, “COMPOUNDS USEFUL AS IMMUNOMODULATORS” (Bristol-Myers Squibb Company, priority 2019, published 2024).
